Test results reported in US20070093511A1, “Anhydrous Crystal Form of Valaciclovir Hydrochloride” (priority 2001, published 2007).
Where a name gives a salt, the structure may show the parent alone.

Assays:
[1] = compared with acyclovir; cited from earlier work
[2] = Thermogravimetric analysis (TGA); type: physicochemical; conditions: from 182-310° C., scan rate 10° C. per minute, associated with melting/decomposition
Description: Thermogravimetric analysis was carried out on a Perkin-Elmer Pyris-1 TGA system. Scan rate of 10° C. per minute. Sample size 3.757 mg. The TGA trace is provided at FIG. 6. Weight loss from 182-310° C.=42.97% w/w associated with melting/decomposition

[3] = Stability and hygroscopicity of the crystal form (stated, no method); type: physicochemical; conditions: stated as advantage
[4] = Water content by Karl Fischer titration; type: physicochemical; conditions: Example 11 analysis
Description: The water of hydration content is measured by the Karl Fischer method which is well known in the art and is described in the 1990 US Pharmacopoeia at pages 1619-1621, and the European Pharmacopoeia, second edition (1992) part 2, sixteenth fascicule at v. 3.5-6.1. Water content (by Karl Fisher titration): 0.61% w/w

Row | Structure (SMILES) | Bioavailability [1] | Weight loss [2] [% w/w] | Hygroscopicity [3] | Stability of crystal form [3] | Water content (by Karl Fisher titration) [4] [% w/w]
1 | CC(C)[C@H](N)C(=O)OCCOCn1cnc2c(=O)[nH]c(N)nc21 [valaciclovir] | much improved bioavailability | – | – | – | –
2 | CC(C)[C@H](N)C(=O)OCCOCn1cnc2c(=O)[nH]c(N)nc21 [Form 2 Valaciclovir Hydrochloride, valaciclovir hydrochloride] | – | 42.97 | essentially non-hygroscopic | stable | 0.61
